Test results from ChEMBL document CHEMBL1142204, “Cathepsin A is the major hydrolase catalyzing the intracellular hydrolysis of the antiretroviral nucleotide phosphonoamidate prodrugs GS-7340 and GS-9131” (Antimicrob Agents Chemother, 2007).

Experiments:
Liver carboxylesterase = biological target: T1, Liver carboxylesterase (Sus scrofa, UniProt Q29550); assay: Inhibition of porcine liver carboxylesterase using [14C]GS-7340 substrate
T1 sequence (Q29550 whole entry): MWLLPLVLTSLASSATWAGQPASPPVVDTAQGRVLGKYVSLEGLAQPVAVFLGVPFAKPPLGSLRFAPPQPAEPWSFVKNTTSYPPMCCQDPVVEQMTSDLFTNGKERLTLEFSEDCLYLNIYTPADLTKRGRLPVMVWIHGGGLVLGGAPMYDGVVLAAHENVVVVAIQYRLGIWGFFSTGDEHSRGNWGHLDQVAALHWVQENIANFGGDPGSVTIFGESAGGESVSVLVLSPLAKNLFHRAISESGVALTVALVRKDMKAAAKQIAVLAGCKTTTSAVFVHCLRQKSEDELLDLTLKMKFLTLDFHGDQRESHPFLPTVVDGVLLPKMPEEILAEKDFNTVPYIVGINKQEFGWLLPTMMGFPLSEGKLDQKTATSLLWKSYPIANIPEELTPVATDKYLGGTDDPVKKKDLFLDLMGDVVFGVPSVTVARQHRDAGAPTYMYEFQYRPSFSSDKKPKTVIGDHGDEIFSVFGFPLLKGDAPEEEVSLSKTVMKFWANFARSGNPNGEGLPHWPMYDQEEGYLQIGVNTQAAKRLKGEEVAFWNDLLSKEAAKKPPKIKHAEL

[1] = Inhibition of purified prodrug hydrolase using [14C]GS-7340 substrate; parameters: species or system Homo sapiens
[2] = Inhibition of crude human PBMC extract prodrug hydrolase using [14C]GS-7340 substrate
[3] = biological target: T2, Lysosomal protective protein (Homo sapiens, UniProt P10619); assay: Inhibition of recombinant CatA using [14C]GS-7340 substrate
T2 sequence (P10619 whole entry): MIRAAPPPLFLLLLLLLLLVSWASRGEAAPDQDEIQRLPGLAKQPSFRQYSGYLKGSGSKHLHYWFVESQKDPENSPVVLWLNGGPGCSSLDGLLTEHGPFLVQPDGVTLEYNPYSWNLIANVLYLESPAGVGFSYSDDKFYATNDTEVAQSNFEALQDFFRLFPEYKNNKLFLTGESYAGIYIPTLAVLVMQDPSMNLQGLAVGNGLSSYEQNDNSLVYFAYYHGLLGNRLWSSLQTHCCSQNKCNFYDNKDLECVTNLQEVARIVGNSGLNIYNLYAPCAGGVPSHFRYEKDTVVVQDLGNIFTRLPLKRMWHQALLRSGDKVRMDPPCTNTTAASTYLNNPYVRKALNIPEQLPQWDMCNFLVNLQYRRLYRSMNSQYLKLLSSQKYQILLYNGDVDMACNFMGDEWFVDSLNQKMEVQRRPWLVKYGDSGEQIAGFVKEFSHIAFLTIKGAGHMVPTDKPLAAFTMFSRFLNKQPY

Neutrophil elastase = biological target: T3, Neutrophil elastase (Homo sapiens, UniProt P08246); assay: Inhibition of human leukocyte elastase using [14C]GS7340 substrate
T3 sequence (P08246 whole entry): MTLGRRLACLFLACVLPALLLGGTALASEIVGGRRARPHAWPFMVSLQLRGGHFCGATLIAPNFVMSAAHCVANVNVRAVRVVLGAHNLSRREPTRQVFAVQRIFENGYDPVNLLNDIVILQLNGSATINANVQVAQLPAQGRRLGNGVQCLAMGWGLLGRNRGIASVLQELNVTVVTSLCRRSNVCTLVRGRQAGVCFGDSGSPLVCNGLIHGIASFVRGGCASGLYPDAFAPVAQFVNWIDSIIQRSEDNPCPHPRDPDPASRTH

Row | IC50 (Neutrophil elastase) | SMILES | IC50 (Liver carboxylesterase) | IC50 [1] | IC50 [2] | IC50 [3]
1 |  | O=c1oc(Cl)c(Cl)c2ccccc12 | > 250 µM | 0.5 µM | 5 µM | 0.6 µM
2 | > 300 µM | CC(C)C[C@H](NC(=O)[C@H]1O[C@@H]1C(=O)O)C(=O)NCCCCN=C(N)N [E-64] | > 300 µM | > 300 µM | > 300 µM | > 300 µM
